Measured values reported in publication PMC10584170, “Machine learning-based phenotypic imaging to characterise the targetable biology of Plasmodium falciparum male gametocytes for the development of transmission-blocking antimalarials” (PLOS Pathogens, 2023).

What was measured:
[1] = test system: P. falciparum male gametocytes; test: P. falciparum Dual Gamete Formation Assay (PfDGFA), male readout (exflagellation); type: cell-based, Plasmodium falciparum NF54; settings: for Average inhibition male (%): average of replicates; for % inhibition male (individual replicates) R1: replicate R1; for % inhibition male (individual replicates) R3: replicate R3; for % inhibition male (individual replicates) R4: replicate R4; for Activity: hit = >50% inhibition in male or female readout in at least 3 replicates, 0 = no class assigned
Procedure, shortened: (§1)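 Day-14 NF54 gametocytes were incubated with compound for 24 h at 37°C under 1% O2/3% CO2/96% N2. Gametogenesis was triggered with ookinete medium (0.1 μM xanthurenic acid) plus Cy3-anti-Pfs25, and exflagellation was imaged by brightfield after cooling to 4°C then 28°C. Females were imaged by Pfs25 fluorescence 24 h later at 28°C.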

[2] = test system: P. falciparum female gametocytes; test: P. falciparum Dual Gamete Formation Assay (PfDGFA), female readout (Pfs25-positive female gametes); type: cell-based, Plasmodium falciparum NF54; settings: for Average inhibition female (%): average of replicates; for % inhibition female (individual replicates) R1: replicate R1; for % inhibition female (individual replicates) R3: replicate R3; for % inhibition female (individual replicates) R4: replicate R4
Procedure, shortened: as §1

[3] = 2µM, 24h preincubation with gametocytes prior to induction of gametogenesis
[4] = 2µM, 24h preincubation, hits selected on >50% inhibition in the male readout across replicates
[5] = PfDGFA at 2µM, 24h preincubation
[6] = 2µM, 24h preincubation, hits selected on >50% inhibition in the female readout across replicates
[7] = 2µM, 24h preincubation, number of replicates with >50% inhibition in the male readout
[8] = 2µM, 24h preincubation, number of replicates with >50% inhibition in the female readout
[9] = PfDGFA at 2µM, 24h preincubation with gametocytes prior to induction of gametogenesis
[10] = PfDGFA at 2µM, 24h preincubation with gametocytes
[11] = number of replicates with >50% inhibition in the male readout, 2µM
[12] = number of replicates with >50% inhibition in the female readout, 2µM

CCCCCOc1ccc(N2C(N)=NC(N)=NC2(C)C)cc1.Cl [TCMDC-137711]
Average inhibition male (%) [1, 3]: -17.3% | % inhibition male (individual replicates) R1 [1, 3]: 6.1% | % inhibition male (individual replicates) R3 [1, 3]: -21.6% | % inhibition male (individual replicates) R4 [1, 3]: -48.5% | HitlevelM [1, 4]: 0 | Activity [1, 5]: 0 | Average inhibition female (%) [2, 3]: 10.0% | % inhibition female (individual replicates) R1 [2, 3]: 16.6% | % inhibition female (individual replicates) R3 [2, 3]: -26.0% | % inhibition female (individual replicates) R4 [2, 3]: 23.4% | HitlevelF [2, 6]: 0

CC(C)(C)c1ccc(N2C(N)=NC(N)=NC2(C)C)cc1.Cl [TCMDC-137713]
Average inhibition male (%) [1, 3]: -3.6% | % inhibition male (individual replicates) R1 [1, 3]: 17.2% | % inhibition male (individual replicates) R3 [1, 3]: 2.2% | % inhibition male (individual replicates) R4 [1, 3]: -36.5% | HitlevelM [1, 7]: 0 | Average inhibition female (%) [2, 3]: 20.6% | % inhibition female (individual replicates) R1 [2, 3]: 16.4% | % inhibition female (individual replicates) R3 [2, 3]: 30.6% | % inhibition female (individual replicates) R4 [2, 3]: 16.4% | HitlevelF [2, 8]: 0

CCc1ccc(N2C(N)=NC(N)=NC2(C)C)cc1.Cl [TCMDC-137714]
Average inhibition male (%) [1, 3]: 9.1% | % inhibition male (individual replicates) R1 [1, 3]: 34.5% | % inhibition male (individual replicates) R3 [1, 3]: 9.3% | % inhibition male (individual replicates) R4 [1, 3]: -34.5% | HitlevelM [1, 4]: 0 | Activity [1, 5]: 0 | Average inhibition female (%) [2, 3]: 7.9% | % inhibition female (individual replicates) R1 [2, 3]: 15.9% | % inhibition female (individual replicates) R3 [2, 3]: 0.5% | % inhibition female (individual replicates) R4 [2, 3]: 12.9% | HitlevelF [2, 6]: 0

CCCC(C)c1ccc(N2C(N)=NC(N)=NC2(C)C)cc1.Cl (centres unmarked) [TCMDC-137715]
% inhibition male (individual replicates) R1 [1, 9]: 8.4% | % inhibition male (individual replicates) R4 [1, 9]: -43.6% | Average inhibition male (%) [1, 5]: -6.3% | % inhibition female (individual replicates) R1 [2, 9]: -4.9% | % inhibition female (individual replicates) R3 [2, 9]: 0.05% | % inhibition female (individual replicates) R4 [2, 9]: 1.4% | Average inhibition female (%) [2, 5]: -2.9%

CN1CCN(CCNc2c3ccccc3nc3c2ccc2ccccc23)CC1.Cl [TCMDC-137723]
Average inhibition male (%) [1, 3]: -12.0% | % inhibition male (individual replicates) R1 [1, 3]: -27.6% | % inhibition male (individual replicates) R3 [1, 3]: -0.85% | % inhibition male (individual replicates) R4 [1, 3]: 0.03% | HitlevelM [1, 7]: 0 | Average inhibition female (%) [2, 3]: 18.4% | % inhibition female (individual replicates) R1 [2, 3]: 9.6% | % inhibition female (individual replicates) R3 [2, 3]: 26.6% | % inhibition female (individual replicates) R4 [2, 3]: 23.3% | HitlevelF [2, 8]: 0

COc1ccc2nc(-c3ccccc3)cc(NCCCNc3cc(-c4ccccc4)nc4ccc(OC)cc34)c2c1.Cl [TCMDC-137734]
Average inhibition male (%) [1, 3]: 9.4% | % inhibition male (individual replicates) R1 [1, 3]: 15.3% | % inhibition male (individual replicates) R3 [1, 3]: -6.1% | % inhibition male (individual replicates) R4 [1, 3]: 18.2% | HitlevelM [1, 4]: 0 | Activity [1, 5]: 0 | Average inhibition female (%) [2, 3]: 5.7% | % inhibition female (individual replicates) R1 [2, 3]: 14.1% | % inhibition female (individual replicates) R3 [2, 3]: -18.5% | % inhibition female (individual replicates) R4 [2, 3]: 23.4% | HitlevelF [2, 6]: 0

Cl.c1ccc2c(NCCCCCCCCCNc3ccnc4ccccc34)ccnc2c1 [TCMDC-137750]
Average inhibition male (%) [1, 3]: 54.0% | % inhibition male (individual replicates) R1 [1, 3]: 40.7% | % inhibition male (individual replicates) R3 [1, 3]: 8.2% | % inhibition male (individual replicates) R4 [1, 3]: 84.2% | HitlevelM [1, 7]: 2 | Average inhibition female (%) [2, 3]: 39.1% | % inhibition female (individual replicates) R1 [2, 3]: 35.8% | % inhibition female (individual replicates) R3 [2, 3]: 19.4% | % inhibition female (individual replicates) R4 [2, 3]: 48.2% | HitlevelF [2, 8]: 1

COCCOc1nc(N)nc2ncc(Cc3cc(OC)ccc3OC)c(C)c12 [TCMDC-137754]
% inhibition male (individual replicates) R1 [1, 9]: 18.4% | % inhibition male (individual replicates) R3 [1, 9]: 27.4% | % inhibition male (individual replicates) R4 [1, 9]: 26.2% | Average inhibition male (%) [1, 5]: 25.9% | % inhibition female (individual replicates) R1 [2, 9]: 1.5% | % inhibition female (individual replicates) R3 [2, 9]: -13.9% | % inhibition female (individual replicates) R4 [2, 9]: 2.0% | Average inhibition female (%) [2, 5]: -4.6%

OCc1ccc2nc3c(cc2c1)-c1cccc2cccc-3c12 [TCMDC-137756]
% inhibition male (individual replicates) R1 [1, 9]: -3.7% | % inhibition male (individual replicates) R3 [1, 9]: 13.3% | % inhibition male (individual replicates) R4 [1, 9]: 12.3% | Average inhibition male (%) [1, 5]: 6.9% | % inhibition female (individual replicates) R1 [2, 9]: 4.5% | % inhibition female (individual replicates) R3 [2, 9]: -23.9% | % inhibition female (individual replicates) R4 [2, 9]: -12.7% | Average inhibition female (%) [2, 5]: -11.0%

COc1ccc(O)c(Cc2cnc3nc(N)[nH]c(=O)c3c2C)c1.CS(=O)(=O)O [TCMDC-137766]
% inhibition male (individual replicates) R1 [1, 9]: 13.3% | % inhibition male (individual replicates) R3 [1, 9]: -7.3% | % inhibition male (individual replicates) R4 [1, 9]: -9.1% | Average inhibition male (%) [1, 5]: 1.5% | % inhibition female (individual replicates) R1 [2, 9]: 3.3% | % inhibition female (individual replicates) R3 [2, 9]: -13.8% | % inhibition female (individual replicates) R4 [2, 9]: -13.6% | Average inhibition female (%) [2, 5]: -2.6%

COc1ccccc1N1CCN(CCCCNC(=O)c2ccc(NC(=O)c3ccc(OC(F)(F)F)cc3)cc2)CC1.Cl [TCMDC-137780]
Average inhibition male (%) [1, 3]: -3.4% | % inhibition male (individual replicates) R1 [1, 3]: -7.9% | % inhibition male (individual replicates) R3 [1, 3]: -14.4% | % inhibition male (individual replicates) R4 [1, 3]: 10.6% | HitlevelM [1, 4]: 0 | Activity [1, 5]: 0 | Average inhibition female (%) [2, 3]: 5.4% | % inhibition female (individual replicates) R1 [2, 3]: 10.5% | % inhibition female (individual replicates) R3 [2, 3]: -10.0% | % inhibition female (individual replicates) R4 [2, 3]: 19.1% | HitlevelF [2, 6]: 0

Cc1cc(N)nc2ccc(-c3ccc(CCN)cc3)cc12 [TCMDC-137786]
Average inhibition male (%) [1, 10]: 75.8% | % inhibition male (individual replicates) R1 [1, 10]: 70.7% | % inhibition male (individual replicates) R4 [1, 10]: 86.5% | HitlevelM [1, 11]: 3 | Average inhibition female (%) [2, 10]: 37.0% | % inhibition female (individual replicates) R1 [2, 10]: 36.7% | % inhibition female (individual replicates) R3 [2, 10]: 37.4% | % inhibition female (individual replicates) R4 [2, 10]: 36.1% | HitlevelF [2, 12]: 0

CCOc1ccc2ccccc2c1CNCCCCCCNCc1c(OCC)ccc2ccccc12.CS(=O)(=O)O [TCMDC-137791]
Average inhibition male (%) [1, 10]: 87.1% | % inhibition male (individual replicates) R1 [1, 10]: 89.3% | % inhibition male (individual replicates) R3 [1, 10]: 68.9% | % inhibition male (individual replicates) R4 [1, 10]: 93.6% | HitlevelM [1, 11]: 4 | Average inhibition female (%) [2, 10]: 47.4% | % inhibition female (individual replicates) R1 [2, 10]: 37.1% | % inhibition female (individual replicates) R3 [2, 10]: 17.2% | % inhibition female (individual replicates) R4 [2, 10]: 66.6% | HitlevelF [2, 12]: 2

c1cc(Cc2ccc(Nc3c4ccccc4nc4ccccc34)cc2)cc(Nc2c3ccccc3nc3ccccc23)c1 [TCMDC-137793]
Average inhibition male (%) [1, 3]: 2.5% | % inhibition male (individual replicates) R1 [1, 3]: 17.2% | % inhibition male (individual replicates) R3 [1, 3]: -11.5% | % inhibition male (individual replicates) R4 [1, 3]: -9.8% | HitlevelM [1, 4]: 0 | Activity [1, 5]: 0 | Average inhibition female (%) [2, 3]: 14.4% | % inhibition female (individual replicates) R1 [2, 3]: 13.9% | % inhibition female (individual replicates) R3 [2, 3]: 7.5% | % inhibition female (individual replicates) R4 [2, 3]: 13.1% | HitlevelF [2, 6]: 0

COc1cc2ccccc2c(CNCCCCCCNCc2c(OC)c(OC)cc3ccccc23)c1OC.CS(=O)(=O)O [TCMDC-137795]
Average inhibition male (%) [1, 10]: 66.8% | % inhibition male (individual replicates) R1 [1, 10]: 59.0% | % inhibition male (individual replicates) R3 [1, 10]: 36.7% | % inhibition male (individual replicates) R4 [1, 10]: 86.9% | HitlevelM [1, 11]: 3 | Average inhibition female (%) [2, 10]: 31.5% | % inhibition female (individual replicates) R1 [2, 10]: 34.0% | % inhibition female (individual replicates) R3 [2, 10]: 23.0% | % inhibition female (individual replicates) R4 [2, 10]: 18.6% | HitlevelF [2, 12]: 1

Br.c1cc(C2=NC3CCCCC3N2)ccc1OCCCCCOc1ccc(C2=NC3CCCCC3N2)cc1 (centres unmarked) [TCMDC-137802]
% inhibition male (individual replicates) R1 [1, 9]: 3.7% | % inhibition male (individual replicates) R3 [1, 9]: 3.4% | % inhibition male (individual replicates) R4 [1, 9]: -3.8% | Average inhibition male (%) [1, 5]: -1.7% | % inhibition female (individual replicates) R1 [2, 9]: 13.0% | % inhibition female (individual replicates) R3 [2, 9]: -14.3% | % inhibition female (individual replicates) R4 [2, 9]: -0.44% | Average inhibition female (%) [2, 5]: 3.6%

Nc1nc(N)c2c(ccc3c2ccn3Cc2cccc(F)c2)n1 [TCMDC-137810]
Average inhibition male (%) [1, 3]: 57.9% | % inhibition male (individual replicates) R1 [1, 3]: 71.9% | % inhibition male (individual replicates) R3 [1, 3]: 59.3% | % inhibition male (individual replicates) R4 [1, 3]: 64.6% | HitlevelM [1, 7]: 3 | Average inhibition female (%) [2, 3]: 73.3% | % inhibition female (individual replicates) R1 [2, 3]: 69.9% | % inhibition female (individual replicates) R3 [2, 3]: 85.4% | % inhibition female (individual replicates) R4 [2, 3]: 66.6% | HitlevelF [2, 8]: 4

COc1cccc(Cn2ccc3c4c(N)nc(N)nc4ccc32)c1 [TCMDC-137811]
Average inhibition male (%) [1, 3]: 42.3% | % inhibition male (individual replicates) R1 [1, 3]: 37.2% | % inhibition male (individual replicates) R3 [1, 3]: 47.4% | % inhibition male (individual replicates) R4 [1, 3]: 43.4% | HitlevelM [1, 7]: 0 | Average inhibition female (%) [2, 3]: 75.4% | % inhibition female (individual replicates) R1 [2, 3]: 72.3% | % inhibition female (individual replicates) R3 [2, 3]: 74.8% | % inhibition female (individual replicates) R4 [2, 3]: 79.8% | HitlevelF [2, 8]: 4
